The NIST ThermoML archive (doi:10.1016/j.fluid.2015.12.053)

Columns and labels:
[1] = Liquid, Ebulliometric method (Recirculating still)
[2] = wn = mass fraction of the nth substance listed; settings: 100 kPa, Liquid, Pycnometric method

Cl.Nc1ccccc1 [aniline hydrochloride]
[1]
Settings | vapor or sublimation pressure [kPa]
475.15 K | 23.25
480.15 K | 27.25
484.15 K | 31.25
488.15 K | 34.25
493.15 K | 41.25
494.15 K | 44.25
495.15 K | 45.25
496.15 K | 46.25
498.15 K | 49.25
499.15 K | 51.25
500.15 K | 52.75
501.15 K | 54.75
502.15 K | 56.25
503.15 K | 59
505.15 K | 62.25
509.15 K | 71.25
512.15 K | 79.25
513.65 K | 83.75
516.15 K | 91.25
517.65 K | 97.25
519.15 K | 101.5
519.65 K | 105.25
521.15 K | 112.25
522.15 K | 118.25
524.15 K | 131.25
525.15 K | 136.25
526.15 K | 141.25
527.15 K | 148.25

Cl.Nc1ccccc1 [aniline hydrochloride] + O
mass density [kg/m3], [2]
Settings | w1 = 0.01 | w1 = 0.05 | w1 = 0.1 | w1 = 0.15 | w1 = 0.2 | w1 = 0.3 | w1 = 0.35 | w1 = 0.4 | w1 = 0.6
298.15 K | 1000 | 1009.2 | 1018.9 | 1028.7 | 1038.5 | 1057.8 | 1068 | 1078.3 | –
303.15 K | 997.4 | 1007.3 | 1016.3 | 1026.6 | 1036.8 | 1056 | 1065.8 | 1075.6 | –
313.15 K | 994.3 | 1002.3 | 1012.3 | 1021.7 | 1031 | 1049.6 | 1059.7 | 1069.7 | –
323.15 K | 989.5 | 995.9 | 1007.3 | 1016.5 | 1025.8 | 1045.3 | 1055.1 | 1065 | 1107.5
333.15 K | 985.6 | 991.2 | 1003.8 | 1012.8 | 1021.8 | 1040.6 | 1050.1 | 1059.6 | 1103.3
343.15 K | 979.1 | 985.1 | 997.1 | 1005.9 | 1014.7 | 1033.5 | 1043 | 1052.5 | 1097.1
353.15 K | 975.1 | 980.7 | 990.2 | 998.8 | 1007.4 | 1026.7 | 1036.3 | 1045.9 | 1087
356.65 K | 965.4 | 973.4 | 978.7 | 987.6 | 996.6 | 1016 | 1026.1 | 1036.3 | 1078

O [water] + Cl.Nc1ccccc1
[2], w2 = 0
Settings | mass density [kg/m3]
298.15 K | 997.7
303.15 K | 996
313.15 K | 992
323.15 K | 986.6
333.15 K | 983.1
343.15 K | 977.3
353.15 K | 971.8
356.65 K | 963.9
